Data on 34 compounds can be found in patent US20230373952A1, “LACTAM COMPOUNDS AS Kv1.3 POTASSIUM SHAKER CHANNEL BLOCKERS” (D.E. Shaw Research, LLC, priority 2020, published 2023).

Each structure is given as a SMILES string. Read-outs that look alike come from different tables or passages of the source. Where only a bound is given, the exact number is not on record here.

In one experiment the target is T1, Kv1.3 potassium channel (Homo sapiens, UniProt P22001).
T1 construct: expressed in transfected cells
The experiment is described as follows: Kv1.3 potassium channel blocker activity, automated whole-cell patch clamp (Patchliner). It is filed as cell-based. The following applies: whole-cell current inhibition, Hill fit. The protocol:
CHO-K1 cells stably expressing Kv1.3 were grown in DMEM containing 10% heat-inactivated FBS, 1 mM sodium pyruvate, 2 mM L-glutamine and G418 (500 μg/ml).
The currents were evoked by applying 100 ms depolarizing pulses from −90 mV (holding potential) to +40 mV were applied with 0.1 Hz frequency. […] 10-second breaks were used between pulse trains (see Table H below).
Passive leak currents were subtracted online using a P/4 procedure (HEKA Elektronik Dr. Schulze GmbH). […] Total compound incubation time before the next pulse train was not longer than 10 seconds. Peak current inhibition was observed during compound equilibration.

A further experiment addresses hERG channel (Homo sapiens, UniProt Q12809). The experiment is described as follows: cell-based.
[1] abbreviates: CHO-K1 cells stably expressing Kv1.3, read-out: Kv1.3 IC50.

Sequence of hERG channel (Q12809 whole entry): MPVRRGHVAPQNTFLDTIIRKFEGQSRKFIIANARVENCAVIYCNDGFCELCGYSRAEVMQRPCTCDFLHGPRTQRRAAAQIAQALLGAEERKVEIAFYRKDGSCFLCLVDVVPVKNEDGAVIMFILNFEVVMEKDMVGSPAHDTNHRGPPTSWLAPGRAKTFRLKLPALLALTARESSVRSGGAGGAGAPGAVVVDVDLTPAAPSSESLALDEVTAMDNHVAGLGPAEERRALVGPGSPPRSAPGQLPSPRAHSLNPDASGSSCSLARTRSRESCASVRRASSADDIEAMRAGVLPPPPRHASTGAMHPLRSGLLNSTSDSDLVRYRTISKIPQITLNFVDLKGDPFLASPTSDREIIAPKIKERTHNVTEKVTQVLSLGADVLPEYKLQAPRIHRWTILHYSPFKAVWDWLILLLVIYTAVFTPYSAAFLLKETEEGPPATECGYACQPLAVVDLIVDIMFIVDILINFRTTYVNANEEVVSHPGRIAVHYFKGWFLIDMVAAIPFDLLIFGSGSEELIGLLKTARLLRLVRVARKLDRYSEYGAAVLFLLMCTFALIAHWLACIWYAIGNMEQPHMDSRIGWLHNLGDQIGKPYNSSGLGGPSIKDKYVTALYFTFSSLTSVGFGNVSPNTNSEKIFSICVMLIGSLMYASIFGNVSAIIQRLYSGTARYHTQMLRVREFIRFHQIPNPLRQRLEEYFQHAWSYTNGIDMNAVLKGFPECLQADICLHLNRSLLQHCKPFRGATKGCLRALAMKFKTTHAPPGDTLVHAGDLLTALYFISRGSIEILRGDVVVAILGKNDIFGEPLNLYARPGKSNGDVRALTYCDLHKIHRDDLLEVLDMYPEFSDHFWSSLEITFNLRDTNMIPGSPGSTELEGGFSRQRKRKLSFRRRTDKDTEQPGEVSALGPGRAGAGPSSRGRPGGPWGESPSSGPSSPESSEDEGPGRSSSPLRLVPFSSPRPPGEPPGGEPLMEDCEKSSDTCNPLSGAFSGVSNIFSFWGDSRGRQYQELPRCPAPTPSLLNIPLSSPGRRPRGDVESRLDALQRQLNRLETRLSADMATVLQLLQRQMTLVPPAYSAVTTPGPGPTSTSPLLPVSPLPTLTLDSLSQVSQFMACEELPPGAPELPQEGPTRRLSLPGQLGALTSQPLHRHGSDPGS
T1 sequence (P22001 whole entry): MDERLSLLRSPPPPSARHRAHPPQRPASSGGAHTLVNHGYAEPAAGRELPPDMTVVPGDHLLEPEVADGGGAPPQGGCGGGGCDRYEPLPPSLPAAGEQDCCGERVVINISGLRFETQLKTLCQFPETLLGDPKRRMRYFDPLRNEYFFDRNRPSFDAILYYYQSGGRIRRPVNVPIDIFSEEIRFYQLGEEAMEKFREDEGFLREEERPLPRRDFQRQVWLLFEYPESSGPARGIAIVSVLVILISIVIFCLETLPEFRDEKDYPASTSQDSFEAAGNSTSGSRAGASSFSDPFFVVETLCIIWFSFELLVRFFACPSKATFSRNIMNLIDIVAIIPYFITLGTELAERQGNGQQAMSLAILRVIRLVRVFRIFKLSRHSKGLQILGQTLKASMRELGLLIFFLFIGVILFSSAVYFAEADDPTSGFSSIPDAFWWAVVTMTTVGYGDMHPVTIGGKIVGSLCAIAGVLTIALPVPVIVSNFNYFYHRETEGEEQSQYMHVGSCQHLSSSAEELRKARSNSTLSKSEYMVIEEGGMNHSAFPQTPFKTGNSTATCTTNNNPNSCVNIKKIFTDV

A word on the IC50: it is the midpoint of a concentration-inhibition curve. Take `NC(=O)CN1C[C@H](c2c(O)ccc(Cl)c2Cl)CC1=O` [Compound 34, 2-[(4S)-4-(2,3-dichloro-6-hydroxyphenyl)-2-oxopyrrolidin-1-yl]acetamide]: the IC50 on Kv1.3 potassium channel (Kv1.3 IC50, CHO-K1 cells stably expressing Kv1.3) was under 100 nM; against hERG channel, over 100000 nM.
With `O=C1C[C@@H](c2c(O)ccc(Cl)c2Cl)CN1CCCO` [Compound 35, (4S)-4-(2,3-dichloro-6-hydroxyphenyl)-1-(3-hydroxypropyl)pyrrolidin-2-one], the values for the IC50 at Kv1.3 potassium channel (setting [1]) and against hERG channel were under 10 nM and over 30000 nM, respectively.
Consider `COCCN1C[C@H](c2c(O)ccc(Cl)c2Cl)CC1=O` [Compound 36, (4S)-4-(2,3-dichloro-6-hydroxyphenyl)-1-(2-methoxyethyl)pyrrolidin-2-one], for which the IC50 at Kv1.3 potassium channel (setting [1]) is under 100 nM; against hERG channel it was over 30000 nM.
Consider `O=C1C[C@@H](c2c(O)ccc(Cl)c2Cl)CN1CCC(F)(F)F` [Compound 37, (4S)-4-(2,3-dichloro-6-hydroxyphenyl)-1-(3,3,3-trifluoropropyl)pyrrolidin-2-one], for which the IC50 on Kv1.3 potassium channel (setting [1]) was under 1000 nM; against hERG channel, over 100000 nM.
Turning to `NC(=O)CCN1C[C@H](c2c(O)ccc(Cl)c2Cl)CC1=O` [Compound 40, (S)-3-(4-(2,3-dichloro-6-hydroxyphenyl)-2-oxopyrrolidin-1-yl)propanamide], the IC50 at Kv1.3 potassium channel (setting [1]) is under 100 nM; against hERG channel, over 100000 nM.
`CN(C)C(=O)CCN1C[C@H](c2c(O)ccc(Cl)c2Cl)CC1=O` [Compound 41, (S)-3-(4-(2,3-dichloro-6-hydroxyphenyl)-2-oxopyrrolidin-1-yl)-N,N-dimethylpropanamide]: the IC50 was under 100 nM on Kv1.3 potassium channel (setting [1]) and over 100000 nM at hERG channel.
As to `O=C1C[C@@H](c2c(O)ccc(Cl)c2Cl)CN1CC(CO)CO` [Compound 42, (4S)-4-(2,3-dichloro-6-hydroxyphenyl)-1-[3-hydroxy-2-(hydroxymethyl)propyl]pyrrolidin-2-one], the IC50 was under 100 nM on Kv1.3 potassium channel (setting [1]) and over 30000 nM against hERG channel.
For the compound `NCCCN1C[C@H](c2c(O)ccc(Cl)c2Cl)CC1=O` [Compound 43, (4S)-1-(3-aminopropyl)-4-(2,3-dichloro-6-hydroxyphenyl)pyrrolidin-2-one], the IC50 at Kv1.3 potassium channel (setting [1]) is under 10 nM; against hERG channel it was over 30000 nM.
Consider `COCCCN1C[C@H](c2c(O)ccc(Cl)c2Cl)CC1=O` [Compound 44, (S)-4-(2,3-dichloro-6-hydroxyphenyl)-1-(3-methoxypropyl)pyrrolidin-2-one], for which the results for the IC50 on Kv1.3 potassium channel (setting [1]) and against hERG channel were under 100 nM and over 10000 nM, respectively.
Take `O=C1C[C@@H](c2c(O)ccc(Cl)c2Cl)CN1CC1(CO)CNC1` [Compound 46, (S)-4-(2,3-dichloro-6-hydroxyphenyl)-1-((3-(hydroxymethyl)azetidin-3-yl)methyl)pyrrolidin-2-one]: the IC50 is under 100 nM at Kv1.3 potassium channel (setting [1]) and over 100000 nM on hERG channel.
`C[C@@H](O)CN1C[C@H](c2c(O)ccc(Cl)c2Cl)CC1=O` [Compound 53, (S)-4-(2,3-dichloro-6-hydroxyphenyl)-1-((R)-2-hydroxypropyl)pyrrolidin-2-one]: the IC50 was under 100 nM at Kv1.3 potassium channel (setting [1]) and over 30000 nM at hERG channel.
In the case of `C[C@H](O)CN1C[C@H](c2c(O)ccc(Cl)c2Cl)CC1=O` [Compound 54, (4S)-4-(2,3-dichloro-6-hydroxyphenyl)-1-[(2S)-2-hydroxypropyl]pyrrolidin-2-one], the IC50 is under 100 nM on Kv1.3 potassium channel (setting [1]) and over 30000 nM at hERG channel.
In the case of `CC(O)(CO)CN1C[C@H](c2c(O)ccc(Cl)c2Cl)CC1=O` (stereo partly drawn) [Compound 55, (4S)-4-(2,3-dichloro-6-hydroxyphenyl)-1-(2,3-dihydroxy-2-methylpropyl)pyrrolidin-2-one], the values for the IC50 on Kv1.3 potassium channel (setting [1]) and on hERG channel were under 1000 nM and over 100000 nM, respectively.
As for `Cn1cc(N2C[C@H](c3c(O)ccc(Cl)c3Cl)CC2=O)cn1` [Compound 56, (4S)-4-(2,3-dichloro-6-hydroxyphenyl)-1-(1-methylpyrazol-4-yl)pyrrolidin-2-one], the IC50 at Kv1.3 potassium channel (setting [1]) is under 100 nM; on hERG channel, over 100000 nM.
Take `Cn1cc(N2CC(c3c(O)ccc(Cl)c3Cl)CC2=O)ccc1=O` (centres unmarked) [Compound 57, 5-[4-(2,3-dichloro-6-hydroxyphenyl)-2-oxopyrrolidin-1-yl]-1-methylpyridin-2-one]: the IC50 at Kv1.3 potassium channel (setting [1]) was under 100 nM; against hERG channel it was over 10000 nM.
Consider `O=C1C[C@@H](c2c(O)ccc(Cl)c2Cl)CN1c1cn[nH]c1` [Compound 58, (S)-4-(2,3-dichloro-6-hydroxyphenyl)-1-(1H-pyrazol-4-yl)pyrrolidin-2-one], for which the IC50 on Kv1.3 potassium channel (setting [1]) was under 100 nM; against hERG channel, over 30000 nM.
For `Nc1ccc(N2C[C@H](c3c(O)ccc(Cl)c3Cl)CC2=O)cn1` [Compound 61, (S)-1-(6-aminopyridin-3-yl)-4-(2,3-dichloro-6-hydroxyphenyl)pyrrolidin-2-one], in that order: under 100 nM and over 10000 nM.
For `Nc1cc(N2C[C@H](c3c(O)ccc(Cl)c3Cl)CC2=O)ccn1` [Compound 62, (S)-1-(2-aminopyridin-4-yl)-4-(2,3-dichloro-6-hydroxyphenyl)pyrrolidin-2-one], the figures for the IC50 at Kv1.3 potassium channel (setting [1]) and against hERG channel were under 100 nM and over 1000 nM, respectively.
Consider `O=C1C[C@@H](c2c(O)ccc(Cl)c2Cl)CN1c1ccncc1` [Compound 64, (S)-4-(2,3-dichloro-6-hydroxyphenyl)-1-(pyridin-4-yl)pyrrolidin-2-one], for which the results for the IC50 at Kv1.3 potassium channel (setting [1]) and at hERG channel were under 100 nM and over 10000 nM, respectively.
Taken in the same sequence, the figures for `Cn1cc(N2C[C@H](c3c(O)ccc(Cl)c3Cl)CC2=O)nn1` [Compound 65, (S)-4-(2,3-dichloro-6-hydroxyphenyl)-1-(1-methyl-1H-1,2,3-triazol-4-yl)pyrrolidin-2-one] were under 1000 nM and over 10000 nM.
With `Cn1cnc(N2C[C@H](c3c(O)ccc(Cl)c3Cl)CC2=O)n1` [Compound 66, (S)-4-(2,3-dichloro-6-hydroxyphenyl)-1-(1-methyl-1H-1,2,4-triazol-3-yl)pyrrolidin-2-one], the IC50 on Kv1.3 potassium channel (setting [1]) is under 1000 nM; against hERG channel it was over 100000 nM.
Taken in the same sequence, the figures for `Cc1ncc(N2C[C@H](c3c(O)ccc(Cl)c3Cl)CC2=O)s1` [Compound 67, (S)-4-(2,3-dichloro-6-hydroxyphenyl)-1-(2-methylthiazol-5-yl)pyrrolidin-2-one] were under 100 nM and over 100000 nM.
For `Cn1ccc(N2C[C@H](c3c(O)ccc(Cl)c3Cl)CC2=O)cc1=O` [Compound 68, (S)-4-(4-(2,3-dichloro-6-hydroxyphenyl)-2-oxopyrrolidin-1-yl)-1-methylpyridin-2(1H)-one], in that order: under 1000 nM and over 100000 nM.
In the case of `O=C1C[C@@H](c2c(O)ccc(Cl)c2Cl)CN1c1cnoc1` [Compound 72, (4S)-4-(2,3-dichloro-6-hydroxyphenyl)-1-(isoxazol-4-yl)pyrrolidin-2-one], the 50% inhibitory concentration (IC50) was under 1000 nM on Kv1.3 potassium channel (setting [1]) and over 100000 nM on hERG channel.
As for `O=C1C[C@@H](c2c(O)ccc(Cl)c2Cl)CN1C1CC(F)(F)C1` [Compound 74, (S)-4-(2,3-dichloro-6-hydroxyphenyl)-1-(3,3-difluorocyclobutyl)pyrrolidin-2-one], the IC50 on Kv1.3 potassium channel (setting [1]) is under 1000 nM; at hERG channel it was over 30000 nM.
In the case of `O=C1CNCCN1CCN1C[C@H](c2c(O)ccc(Cl)c2Cl)CC1=O` [Compound 75, 1-[2-[(4S)-4-(2,3-dichloro-6-hydroxyphenyl)-2-oxopyrrolidin-1-yl]ethyl]piperazin-2-one], the concentration for half-maximal inhibition (IC50) on Kv1.3 potassium channel (setting [1]) is under 100 nM; against hERG channel, over 30000 nM.
For the compound `C[C@H]1[C@H](c2c(O)ccc(Cl)c2Cl)CC(=O)N1CCCO` [Compound 86, (4S,5S)-4-(2,3-dichloro-6-hydroxyphenyl)-1-(3-hydroxypropyl)-5-methylpyrrolidin-2-one], the IC50 was under 100 nM at Kv1.3 potassium channel (setting [1]) and over 30000 nM on hERG channel.
`N[C@H]1C(=O)N(C2CNC2)C[C@@H]1c1c(O)ccc(Cl)c1Cl` [Compound 92, (3R,4S)-3-amino-1-(azetidin-3-yl)-4-(2,3-dichloro-6-hydroxyphenyl)pyrrolidin-2-one]: the values for the IC50 on Kv1.3 potassium channel (setting [1]) and on hERG channel were under 1000 nM and over 100000 nM, respectively.
As to `O=C1N[C@@H](c2c(O)ccc(Cl)c2Cl)CN1CCO` [Compound 99, (4S)-4-(2,3-dichloro-6-hydroxyphenyl)-1-(2-hydroxyethyl)imidazolidin-2-one], the IC50 on Kv1.3 potassium channel (setting [1]) was under 100 nM; on hERG channel, over 100000 nM.
On to `Cn1cc(N2C[C@H](c3c(O)ccc(Cl)c3Cl)NC2=O)cn1` [Compound 100, (4S)-4-(2,3-dichloro-6-hydroxyphenyl)-1-(1-methylpyrazol-4-yl)imidazolidin-2-one], for which the IC50 is under 100 nM at Kv1.3 potassium channel (setting [1]) and over 30000 nM on hERG channel.
Turning to `O=C1N[C@@H](c2c(O)ccc(Cl)c2Cl)CN1C[C@H](O)CO` [Compound 102, (4S)-4-(2,3-dichloro-6-hydroxyphenyl)-1-[(2S)-2,3-dihydroxypropyl]imidazolidin-2-one], the IC50 on Kv1.3 potassium channel (setting [1]) was under 100 nM; against hERG channel, over 100000 nM.
In the case of `O=C1N[C@@H](c2c(O)ccc(Cl)c2Cl)CN1C[C@@H](O)CO` [Compound 103, (4S)-4-(2,3-dichloro-6-hydroxyphenyl)-1-[(2R)-2,3-dihydroxypropyl]imidazolidin-2-one], the IC50 is under 1000 nM on Kv1.3 potassium channel (setting [1]) and over 100000 nM against hERG channel.
`O=C1N[C@@H](c2c(O)ccc(Cl)c2Cl)CN1CCCO` [Compound 104, (4S)-4-(2,3-dichloro-6-hydroxyphenyl)-1-(3-hydroxypropyl)imidazolidin-2-one]: the results for the IC50 on Kv1.3 potassium channel (setting [1]) and on hERG channel were under 100 nM and over 100000 nM, respectively.
Regarding `N[C@@H]1C(=O)N(CCO)C[C@@H]1c1c(O)ccc(Cl)c1Cl` [Compound 105], the IC50 at Kv1.3 potassium channel (setting [1]) is under 1000 nM; on hERG channel, over 100000 nM.
